The record followed here is ChEMBL document CHEMBL5465560, “Selectivity Literature for EUbOPEN Chemogenomic Library” (2024).

For assay [1], the target named is Cyclin-dependent kinase 9 (Homo sapiens, UniProt P50750). The assay can be described thus: Selectivity interaction (KinomeScan (DiscoverX)) EUB0001619a CDK9. Conditions: at 1 µM.
Assay [2] has as its target Tyrosine-protein kinase Yes (Homo sapiens) (UniProt P07947). Nature of the assay: Selectivity interaction (KinomeScan (DiscoverX)) EUB0000695a YES1. The following applies: at 100 nM.
For assay [3], the target named is Ribosomal protein S6 kinase alpha-2 (Homo sapiens) (UniProt Q15349). Nature of the assay: Selectivity interaction (KinomeScan (DiscoverX)) EUB0000666a RPS6KA2. Conditions: at 10 µM.
Assay [4] concerns the target Calcium/calmodulin-dependent protein kinase kinase 1 (Homo sapiens) (UniProt Q8N5S9). Nature of the assay: Selectivity interaction (KinomeScan (DiscoverX)) EUB0000607a CAMKK1. Conditions: at 10 µM.
Assay [5] addresses Tyrosine-protein kinase JAK2 (Homo sapiens, UniProt O60674). The assay can be described thus: Selectivity interaction (SelectScreen profiling (Invitrogen)) EUB0000607a JAK2. Conditions: at 2 µM.
The target in assay [6] is T1, Mitogen-activated protein kinase kinase kinase 7 (Homo sapiens) (UniProt O43318).
T1 sequence (whole entry): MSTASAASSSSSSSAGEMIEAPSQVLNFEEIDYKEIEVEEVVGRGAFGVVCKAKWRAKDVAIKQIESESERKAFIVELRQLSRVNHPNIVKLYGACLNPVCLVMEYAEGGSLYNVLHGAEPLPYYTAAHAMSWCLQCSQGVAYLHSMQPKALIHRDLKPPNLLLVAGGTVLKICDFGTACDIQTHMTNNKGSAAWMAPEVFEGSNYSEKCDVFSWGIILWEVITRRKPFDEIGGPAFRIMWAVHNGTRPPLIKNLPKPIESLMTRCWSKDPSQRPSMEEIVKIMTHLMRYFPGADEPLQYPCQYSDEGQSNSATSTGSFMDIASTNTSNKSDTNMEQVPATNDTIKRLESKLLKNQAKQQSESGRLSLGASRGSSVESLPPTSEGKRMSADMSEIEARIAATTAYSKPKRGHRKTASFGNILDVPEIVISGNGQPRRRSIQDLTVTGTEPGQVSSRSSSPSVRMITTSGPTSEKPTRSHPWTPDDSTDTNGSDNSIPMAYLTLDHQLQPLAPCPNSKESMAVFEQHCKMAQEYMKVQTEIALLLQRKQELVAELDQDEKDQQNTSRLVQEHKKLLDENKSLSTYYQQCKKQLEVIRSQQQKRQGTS
Nature of the assay: Selectivity interaction (Kinase panel (literature)) EUB0001199aCl MAP3K7. Conditions: at 1 µM.

Assay [7] has as its target MAP/microtubule affinity-regulating kinase 3 (Homo sapiens) (UniProt P27448). Nature of the assay: Selectivity interaction (ProQinase) EUB0000171b MARK3.
Assay [8] deals with T2, Dual serine/threonine and tyrosine protein kinase (Homo sapiens) (UniProt Q6XUX3).
T2 sequence (whole entry): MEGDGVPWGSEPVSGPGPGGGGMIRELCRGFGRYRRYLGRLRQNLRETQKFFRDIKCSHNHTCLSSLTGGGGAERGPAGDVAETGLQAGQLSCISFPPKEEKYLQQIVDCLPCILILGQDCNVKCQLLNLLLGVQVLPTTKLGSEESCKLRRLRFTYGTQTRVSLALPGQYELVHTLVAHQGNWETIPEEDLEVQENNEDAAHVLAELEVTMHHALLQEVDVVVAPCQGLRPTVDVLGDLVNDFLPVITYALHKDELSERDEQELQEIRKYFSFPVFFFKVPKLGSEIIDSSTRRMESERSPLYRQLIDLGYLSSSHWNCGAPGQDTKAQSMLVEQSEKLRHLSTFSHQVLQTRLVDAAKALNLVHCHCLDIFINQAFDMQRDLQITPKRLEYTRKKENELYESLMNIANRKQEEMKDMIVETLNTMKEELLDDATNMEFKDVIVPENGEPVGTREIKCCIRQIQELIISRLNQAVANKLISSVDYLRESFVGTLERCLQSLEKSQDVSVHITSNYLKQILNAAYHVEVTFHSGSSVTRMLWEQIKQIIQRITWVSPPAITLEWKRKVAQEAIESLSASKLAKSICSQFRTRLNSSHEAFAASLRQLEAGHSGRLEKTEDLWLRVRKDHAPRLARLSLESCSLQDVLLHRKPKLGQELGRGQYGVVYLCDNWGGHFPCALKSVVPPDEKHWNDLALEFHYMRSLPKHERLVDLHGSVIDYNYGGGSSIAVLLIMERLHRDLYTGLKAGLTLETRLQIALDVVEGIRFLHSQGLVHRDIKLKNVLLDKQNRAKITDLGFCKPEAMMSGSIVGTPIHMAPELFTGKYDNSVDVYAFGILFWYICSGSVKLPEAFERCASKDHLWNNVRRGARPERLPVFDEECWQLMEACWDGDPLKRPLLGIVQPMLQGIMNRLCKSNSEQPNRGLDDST
The assay can be described thus: Selectivity interaction (KinomeScan (DiscoverX)) EUB0000618a DSTYK. The following applies: at 10 µM.

The target in assay [9] is T3, RNA 5'-monophosphate methyltransferase (Homo sapiens) (UniProt Q7Z5W3).
T3 sequence (whole entry): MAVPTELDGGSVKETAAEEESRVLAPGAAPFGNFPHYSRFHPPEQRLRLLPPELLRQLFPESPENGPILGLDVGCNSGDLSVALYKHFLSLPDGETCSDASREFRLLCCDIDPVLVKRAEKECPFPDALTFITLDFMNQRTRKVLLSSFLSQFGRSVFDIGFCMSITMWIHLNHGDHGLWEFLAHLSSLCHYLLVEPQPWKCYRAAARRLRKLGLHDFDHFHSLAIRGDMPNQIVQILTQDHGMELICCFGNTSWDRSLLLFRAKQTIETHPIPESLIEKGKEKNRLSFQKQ
The assay can be described thus: Selectivity interaction (Methyltransferase screen (radiometric assays, panel of 8 PRMTs, 21 protein lysine methyltransferases, 3 DNA methyltransferases, and one RNA methyltransferase)) EUB0000271b BCDIN3D.

Assay [10] addresses T4, Mitogen-activated protein kinase 12 (Homo sapiens) (UniProt P53778).
T4 sequence (whole entry): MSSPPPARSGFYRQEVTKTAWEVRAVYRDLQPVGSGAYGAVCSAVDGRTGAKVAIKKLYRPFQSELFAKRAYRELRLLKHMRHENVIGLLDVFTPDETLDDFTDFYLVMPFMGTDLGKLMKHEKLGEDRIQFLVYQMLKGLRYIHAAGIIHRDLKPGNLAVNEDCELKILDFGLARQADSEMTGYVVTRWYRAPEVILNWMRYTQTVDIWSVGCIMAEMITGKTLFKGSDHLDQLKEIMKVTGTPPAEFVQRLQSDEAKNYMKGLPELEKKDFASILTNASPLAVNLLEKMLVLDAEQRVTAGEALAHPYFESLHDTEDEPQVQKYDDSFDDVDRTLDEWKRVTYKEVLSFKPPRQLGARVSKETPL
Nature of the assay: Selectivity interaction (KinomeScan (DiscoverX)) EUB0000229b MAPK12. The following applies: at 10 µM.

The target of assay [11] is Serine/threonine-protein kinase A-Raf (Homo sapiens) (UniProt P10398). Nature of the assay: Selectivity interaction (Kinase panel (KiNativ target engagement assay in Jurkat cells)) EUB0001635a ARAF. The format is cell-based. The following applies: Selectivity number of off-targets 0.0, Selectivity number of targets 233.0, Source Knowledge https://www.sciencedirect.com/science/article/pii/S2451945619300674?via%3Dihub, at 1 µM.
Serine/threonine-protein kinase A-Raf (Homo sapiens), sequence (P10398 whole entry): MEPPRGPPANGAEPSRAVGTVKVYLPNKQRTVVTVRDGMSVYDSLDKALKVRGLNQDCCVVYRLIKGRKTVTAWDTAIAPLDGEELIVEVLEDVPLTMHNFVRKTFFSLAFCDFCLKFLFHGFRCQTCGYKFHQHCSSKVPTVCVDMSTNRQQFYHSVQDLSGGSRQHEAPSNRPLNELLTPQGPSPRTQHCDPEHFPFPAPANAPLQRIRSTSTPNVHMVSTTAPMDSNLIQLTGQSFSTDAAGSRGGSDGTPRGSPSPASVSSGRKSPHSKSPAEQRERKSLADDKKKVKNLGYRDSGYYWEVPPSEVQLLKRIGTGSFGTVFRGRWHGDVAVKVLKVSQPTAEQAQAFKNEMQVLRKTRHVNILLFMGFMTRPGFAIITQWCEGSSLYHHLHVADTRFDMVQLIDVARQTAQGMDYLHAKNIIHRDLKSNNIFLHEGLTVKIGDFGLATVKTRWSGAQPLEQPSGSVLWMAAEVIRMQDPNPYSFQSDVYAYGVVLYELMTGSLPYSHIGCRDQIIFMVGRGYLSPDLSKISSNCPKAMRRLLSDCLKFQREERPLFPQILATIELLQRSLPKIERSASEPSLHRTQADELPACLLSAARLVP

MAP/microtubule affinity-regulating kinase 3 (Homo sapiens), sequence (P27448 whole entry, looked up): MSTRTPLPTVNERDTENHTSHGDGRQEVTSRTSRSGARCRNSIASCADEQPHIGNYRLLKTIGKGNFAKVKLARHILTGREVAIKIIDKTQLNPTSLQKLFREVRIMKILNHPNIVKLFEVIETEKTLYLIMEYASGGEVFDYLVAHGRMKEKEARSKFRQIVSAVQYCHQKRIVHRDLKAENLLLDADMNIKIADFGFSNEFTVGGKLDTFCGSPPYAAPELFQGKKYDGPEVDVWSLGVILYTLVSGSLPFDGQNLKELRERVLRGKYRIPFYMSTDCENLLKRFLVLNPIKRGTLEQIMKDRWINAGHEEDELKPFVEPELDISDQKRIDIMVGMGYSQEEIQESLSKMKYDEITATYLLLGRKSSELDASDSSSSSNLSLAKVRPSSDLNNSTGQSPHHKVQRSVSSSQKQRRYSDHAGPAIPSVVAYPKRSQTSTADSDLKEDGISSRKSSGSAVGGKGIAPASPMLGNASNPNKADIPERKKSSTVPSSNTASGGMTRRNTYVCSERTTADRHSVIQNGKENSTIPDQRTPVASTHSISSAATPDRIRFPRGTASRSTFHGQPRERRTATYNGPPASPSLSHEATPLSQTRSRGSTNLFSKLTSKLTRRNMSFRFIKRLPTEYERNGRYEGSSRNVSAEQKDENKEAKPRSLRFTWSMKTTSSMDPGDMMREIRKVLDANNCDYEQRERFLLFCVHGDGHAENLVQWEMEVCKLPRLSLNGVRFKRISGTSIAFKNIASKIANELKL
Ribosomal protein S6 kinase alpha-2 (Homo sapiens), sequence (Q15349 whole entry): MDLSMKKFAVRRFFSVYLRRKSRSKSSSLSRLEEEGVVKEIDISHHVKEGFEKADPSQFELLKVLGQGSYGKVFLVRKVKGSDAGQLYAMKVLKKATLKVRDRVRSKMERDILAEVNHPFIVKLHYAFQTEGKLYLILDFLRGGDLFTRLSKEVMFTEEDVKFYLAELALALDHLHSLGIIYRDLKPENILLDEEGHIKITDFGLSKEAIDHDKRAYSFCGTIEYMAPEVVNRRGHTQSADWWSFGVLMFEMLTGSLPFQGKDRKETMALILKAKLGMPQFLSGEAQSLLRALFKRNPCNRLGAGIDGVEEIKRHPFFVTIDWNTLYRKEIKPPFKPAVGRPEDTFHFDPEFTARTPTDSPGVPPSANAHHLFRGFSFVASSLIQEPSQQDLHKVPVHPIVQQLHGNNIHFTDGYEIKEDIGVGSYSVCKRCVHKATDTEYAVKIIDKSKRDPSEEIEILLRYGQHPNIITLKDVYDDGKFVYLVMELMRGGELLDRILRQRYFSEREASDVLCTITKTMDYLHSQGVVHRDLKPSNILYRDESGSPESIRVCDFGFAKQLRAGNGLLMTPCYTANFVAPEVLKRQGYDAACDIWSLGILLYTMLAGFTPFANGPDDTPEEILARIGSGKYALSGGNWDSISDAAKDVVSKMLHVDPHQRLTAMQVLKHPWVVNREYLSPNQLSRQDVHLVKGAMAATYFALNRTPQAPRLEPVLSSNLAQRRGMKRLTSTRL
Tyrosine-protein kinase JAK2, sequence (O60674 whole entry): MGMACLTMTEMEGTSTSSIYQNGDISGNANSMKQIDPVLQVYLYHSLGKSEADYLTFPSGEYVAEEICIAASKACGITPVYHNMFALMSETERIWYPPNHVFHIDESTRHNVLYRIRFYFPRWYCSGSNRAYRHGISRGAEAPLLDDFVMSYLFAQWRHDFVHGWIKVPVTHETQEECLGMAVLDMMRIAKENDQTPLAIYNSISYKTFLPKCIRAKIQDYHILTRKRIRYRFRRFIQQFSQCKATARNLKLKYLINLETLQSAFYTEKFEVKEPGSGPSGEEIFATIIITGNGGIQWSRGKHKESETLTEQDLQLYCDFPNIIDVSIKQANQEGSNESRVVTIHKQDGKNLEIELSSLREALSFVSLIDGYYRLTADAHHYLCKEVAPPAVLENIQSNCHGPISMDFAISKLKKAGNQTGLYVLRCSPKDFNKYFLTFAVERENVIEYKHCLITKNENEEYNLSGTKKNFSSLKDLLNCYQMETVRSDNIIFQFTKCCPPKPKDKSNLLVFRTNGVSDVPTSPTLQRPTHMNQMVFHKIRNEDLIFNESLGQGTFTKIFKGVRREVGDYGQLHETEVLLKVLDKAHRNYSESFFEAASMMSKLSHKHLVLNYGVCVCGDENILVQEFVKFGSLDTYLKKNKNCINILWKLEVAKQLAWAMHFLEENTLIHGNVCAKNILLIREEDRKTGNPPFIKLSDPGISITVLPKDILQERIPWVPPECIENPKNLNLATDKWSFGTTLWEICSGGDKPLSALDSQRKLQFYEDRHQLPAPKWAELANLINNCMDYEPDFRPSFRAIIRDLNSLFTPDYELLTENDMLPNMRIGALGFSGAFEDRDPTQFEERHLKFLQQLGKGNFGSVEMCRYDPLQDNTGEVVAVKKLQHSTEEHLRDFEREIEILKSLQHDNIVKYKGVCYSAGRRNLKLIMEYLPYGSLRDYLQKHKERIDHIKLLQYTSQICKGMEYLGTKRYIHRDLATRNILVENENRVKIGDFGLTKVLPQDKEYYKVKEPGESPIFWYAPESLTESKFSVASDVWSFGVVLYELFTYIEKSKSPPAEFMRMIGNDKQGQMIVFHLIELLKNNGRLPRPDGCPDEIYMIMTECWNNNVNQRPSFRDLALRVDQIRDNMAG
Cyclin-dependent kinase 9, sequence (P50750 whole entry): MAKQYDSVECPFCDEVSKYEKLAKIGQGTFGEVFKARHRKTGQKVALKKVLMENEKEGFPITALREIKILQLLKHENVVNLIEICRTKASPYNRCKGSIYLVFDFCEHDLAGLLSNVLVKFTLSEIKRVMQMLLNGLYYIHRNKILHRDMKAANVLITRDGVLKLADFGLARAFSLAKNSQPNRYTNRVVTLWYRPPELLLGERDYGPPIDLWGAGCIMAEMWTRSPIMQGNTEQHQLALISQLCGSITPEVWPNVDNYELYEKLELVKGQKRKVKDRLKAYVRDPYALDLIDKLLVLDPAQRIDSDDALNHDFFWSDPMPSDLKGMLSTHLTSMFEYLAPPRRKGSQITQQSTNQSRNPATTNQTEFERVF
Calcium/calmodulin-dependent protein kinase kinase 1 (Homo sapiens), sequence (Q8N5S9 whole entry, looked up): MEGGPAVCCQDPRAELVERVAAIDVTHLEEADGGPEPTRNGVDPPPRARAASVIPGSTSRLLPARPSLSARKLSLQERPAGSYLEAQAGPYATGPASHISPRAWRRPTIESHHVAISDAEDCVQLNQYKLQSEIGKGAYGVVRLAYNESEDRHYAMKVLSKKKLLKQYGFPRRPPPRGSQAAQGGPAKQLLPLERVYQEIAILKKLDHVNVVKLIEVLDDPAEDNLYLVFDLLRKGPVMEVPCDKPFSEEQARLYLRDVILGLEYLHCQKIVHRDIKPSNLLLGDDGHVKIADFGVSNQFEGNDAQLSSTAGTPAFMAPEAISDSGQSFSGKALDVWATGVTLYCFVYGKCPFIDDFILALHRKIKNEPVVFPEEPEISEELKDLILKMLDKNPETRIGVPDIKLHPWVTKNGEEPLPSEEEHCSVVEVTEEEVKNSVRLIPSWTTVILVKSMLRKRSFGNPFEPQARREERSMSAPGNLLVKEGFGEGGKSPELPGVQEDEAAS
Tyrosine-protein kinase Yes (Homo sapiens), sequence (P07947 2-543 limits assumed): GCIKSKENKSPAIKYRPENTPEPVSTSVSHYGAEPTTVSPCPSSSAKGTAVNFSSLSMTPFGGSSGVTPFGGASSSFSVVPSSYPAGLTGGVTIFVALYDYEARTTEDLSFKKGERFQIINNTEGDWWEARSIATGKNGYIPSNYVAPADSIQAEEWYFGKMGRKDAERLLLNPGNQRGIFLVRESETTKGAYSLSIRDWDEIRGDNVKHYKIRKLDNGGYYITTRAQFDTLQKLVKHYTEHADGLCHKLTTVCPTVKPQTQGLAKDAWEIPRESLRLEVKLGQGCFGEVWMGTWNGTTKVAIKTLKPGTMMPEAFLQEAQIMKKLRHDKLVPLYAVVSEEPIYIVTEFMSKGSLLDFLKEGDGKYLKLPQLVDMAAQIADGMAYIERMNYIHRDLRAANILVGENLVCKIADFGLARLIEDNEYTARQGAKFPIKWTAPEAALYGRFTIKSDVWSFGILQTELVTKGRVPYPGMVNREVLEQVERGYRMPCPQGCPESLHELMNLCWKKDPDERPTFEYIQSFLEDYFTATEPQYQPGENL

For the molecule `N#Cc1cccc(-c2c[nH]c3ncnc(N4CCOCC4)c23)c1`, the % of control in assay [1] is 97%. In turn, `Cc1cc(F)c(C(=O)Nc2cccc(-c3nncn3C(C)C)n2)cc1-n1cnc(C2CC2)c1` displayed a % of control in [2] of 73%.

`O=C(NOC[C@H](O)CO)c1ccc(F)c(F)c1Nc1ccc(I)cc1F` came in with a % of control in [3] of 92%.

Turning to `CNC(=O)Nc1ccc(-c2nc(N3CC4CCC(C3)O4)c3cnn(C4CCC5(CC4)OCCO5)c3n2)cc1`, the % of control in assay [4] worked out at 100%. The molecule also yielded a % of inhibition in assay [5] of 2%. In the case of `CN1Cc2nccc(-c3cn(C)nc3-c3ccc(F)cc3)c2C1=O`, the % of inhibition in assay [6] was found to be 3%.

As to `C=CC(=O)Nc1cccc(C(=O)Nc2ccc(Nc3cc(-c4[nH]c(SC)nc4C)ccn3)cc2)c1`, the % of control in [7] (at 1 µM) came to 82%; in [7] (at 5 µM) it was 92%.

Take `O[C@H]1CC[C@H](Nc2ncc3nc(Nc4c(F)cc(F)cc4F)n([C@H]4CCOC4)c3n2)CC1`: the % of control in assay [8] was determined as 91%.

In the case of `Cc1cc(C)cc([C@@H]2c3cc(C)ccc3NC(=O)CN2C(=O)c2ccc(Br)s2)c1`, the values for the % of activity in assay [9] (at 1 µM) and in [9] (at 10 µM) were 100% and 101%, respectively. Regarding `COc1cc(N(C)c2ccnc3ccc(C(F)(F)F)cc23)cc(OC)c1OC`, the % binding in assay [10] stood at 100%. Regarding `C=CC(=O)Nc1ccc(C(=O)Nc2[nH]nc3c2CN(C(=O)N[C@H](CN(C)C)c2ccccc2)C3(C)C)cc1`, in assay [11], the % of engagement was -2.2%.
